Results from PMC3691235, “Discovery of a Novel Dual Fungal CYP51/Human 5-Lipoxygenase Inhibitor: Implications for Anti-Fungal Therapy” (PLoS ONE, 2013).
Like-named read-outs stand apart in the source and are kept apart here. Blank lines part the entries; values can stand above or below the compound they belong to.

Columns and labels:
[1] = target: T1, human COX-2 (Homo sapiens, UniProt P35354); assay: Cyclooxygenase assay (oxygen electrode), COX-2; format: biochemical; settings: 100 µM AA, pH 8.0, 37°C, oxygen consumption
T1 construct: purchased Cayman chemical 60122
T1 sequence (P35354 18-604): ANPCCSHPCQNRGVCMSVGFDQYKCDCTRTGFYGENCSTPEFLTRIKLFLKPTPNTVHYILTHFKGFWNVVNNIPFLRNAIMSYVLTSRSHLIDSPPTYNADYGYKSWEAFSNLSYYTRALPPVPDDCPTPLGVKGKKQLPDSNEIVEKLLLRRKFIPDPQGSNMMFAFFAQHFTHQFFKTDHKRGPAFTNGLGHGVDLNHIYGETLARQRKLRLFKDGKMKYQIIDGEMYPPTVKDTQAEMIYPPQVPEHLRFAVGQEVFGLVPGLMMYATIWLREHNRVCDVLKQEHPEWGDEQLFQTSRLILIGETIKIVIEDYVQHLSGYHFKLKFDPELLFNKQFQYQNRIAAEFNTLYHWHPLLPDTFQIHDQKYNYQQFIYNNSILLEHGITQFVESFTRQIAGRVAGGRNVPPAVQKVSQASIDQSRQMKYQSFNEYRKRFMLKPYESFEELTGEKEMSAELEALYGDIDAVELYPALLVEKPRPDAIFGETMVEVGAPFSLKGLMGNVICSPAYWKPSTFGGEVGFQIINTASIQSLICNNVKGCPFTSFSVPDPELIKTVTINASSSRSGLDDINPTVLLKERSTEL
Experimental: Ovine COX-1 (Cat. No. 60100) and human COX-2 (Cat. No. 60122) were purchased from Cayman chemical. Approximately 2 µg of either COX-1 or COX-2 were added to buffer containing 100 µM AA, 0.1 M Tris-HCl buffer (pH 8.0), 5 mM EDTA, 2 mM phenol and 1 µM hematin at 37°C. Data was collected using a Hansatech DW1 oxygen electrode chamber, as described before. Inhibitor or vehicle were mixed with the respective COX in buffer within the electrode cell, the reaction was initiated by the addition of AA, followed by monitoring of rate of oxygen consumption. Ibuprofen, aspirin and indomethacin, and the carrier solvent, DMSO, were used as positive and negative controls, respectively.

[2] = target: T2, CaCYP51 (Candida albicans, UniProt P10613); assay: CYP51 reconstitution assay, CaCYP51; format: biochemical
T2 construct: made in house; host or cells: E. coli
Experimental: Azole antifungal agents were added in 5 µL DMSO followed by incubation for 5 minutes at 37°C prior to assay initiation with 4 mM β-NADPHNa4, with shaking for a further 10 minutes at 37°C. Sterol metabolites were recovered by extraction with ethyl acetate followed by derivatization with N,O-bis(trimethylsilyl)trifluoroacetamide and […] prior to analysis by gas chromatography mass spectrometry.

[3] = target: T3, 5-LOX (Homo sapiens, UniProt P09917); assay: Pseudoperoxidase activity assay; format: biochemical; settings: 10 µM inhibitor, 10 µM 13-HPODE, positive = loss of greater than 40% of product absorption at 234 nm
T3 construct: made in house
T3 sequence (P09917 1-674): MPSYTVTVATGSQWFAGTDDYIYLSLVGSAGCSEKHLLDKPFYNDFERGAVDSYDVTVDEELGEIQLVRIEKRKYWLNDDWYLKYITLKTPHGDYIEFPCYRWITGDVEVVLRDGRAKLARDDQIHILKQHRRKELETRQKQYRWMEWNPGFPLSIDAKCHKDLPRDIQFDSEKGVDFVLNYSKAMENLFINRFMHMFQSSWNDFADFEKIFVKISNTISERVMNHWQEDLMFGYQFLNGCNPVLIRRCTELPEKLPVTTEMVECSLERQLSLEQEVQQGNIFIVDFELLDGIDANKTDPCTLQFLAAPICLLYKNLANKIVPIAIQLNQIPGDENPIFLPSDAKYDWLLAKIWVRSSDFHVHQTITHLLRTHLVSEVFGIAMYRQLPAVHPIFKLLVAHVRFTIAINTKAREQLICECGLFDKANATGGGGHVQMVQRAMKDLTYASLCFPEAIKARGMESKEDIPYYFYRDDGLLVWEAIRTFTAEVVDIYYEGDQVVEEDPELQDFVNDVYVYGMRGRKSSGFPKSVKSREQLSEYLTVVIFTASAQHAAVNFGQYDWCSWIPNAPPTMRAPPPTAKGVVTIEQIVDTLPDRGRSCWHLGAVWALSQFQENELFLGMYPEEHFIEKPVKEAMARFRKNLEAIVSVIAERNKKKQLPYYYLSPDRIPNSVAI
Experimental: The reductive properties of the inhibitors were determined by monitoring the pseudoperoxidase activity of lipoxygenase in the presence of the inhibitor and 13-(S)-hydroperoxyoctadecadienoic acid (13-HPODE). Activity is monitored by direct measurement of the product degradation following the decrease of absorbance at 234 nm using a Perkin-Elmer Lambda 40 UV/Vis spectrometer (50 mM Sodium Phosphate (pH 7.4), 0.3 mM CaCl2, 0.1 mM EDTA, 0.01% Triton X100, 10 µM 13-HPODE). All reactions were performed in 2 mL of buffer and constantly stirred with a rotating stir bar (23°C). Reaction was initiated by addition of 10 µM inhibitor (a 1 to 1 ratio to 13-HPODE), and a positive result for activity reflected a loss of greater than 40% of product absorption at 234 nm.

[4] = target: T4, Human leukocyte 5-lipoxygenase (Homo sapiens, UniProt P09917); settings: [13], cited from earlier work
T4 construct: made in house
T4 sequence (P09917 1-674): T3 sequence (P09917 1-674)

[5] = target: T5, C. albicans CYP51 (CaCYP51) (Candida albicans, UniProt P10613); assay: biochemical; format: binding
T5 construct: made in house; host or cells: E. coli
Experimental: Native cytochrome P450 concentrations were determined by reduced carbon monoxide difference spectra, based on an extinction coefficient of 91 mM^−1 cm^−1 [42], [43]. Binding of azole antifungal agents to 5 µM CaCYP51 and 5 µM HsCYP51 were performed as previously described, [44], using 0.25 and 0.5 mg mL^−1 stock solutions of ketoconazole and ketaminazole in DMSO. Azole antifungal agents were progressively titrated against the CYP51 protein in 0.1 M Tris-HCl (pH 8.1) and 25% (wt/vol) glycerol, with the spectral difference determined after each incremental addition of azole. The dissociation constant (Kd) of the enzyme-azole complex was determined by nonlinear regression (Levenberg-Marquardt algorithm) of ΔA peak-trough against azole concentration using a rearrangement of the Morrison equation [45] and fitted by the computer program ProFit 6.1.12 (QuantumSoft, Zurich, Switzerland).

T5 sequence (P10613 whole entry): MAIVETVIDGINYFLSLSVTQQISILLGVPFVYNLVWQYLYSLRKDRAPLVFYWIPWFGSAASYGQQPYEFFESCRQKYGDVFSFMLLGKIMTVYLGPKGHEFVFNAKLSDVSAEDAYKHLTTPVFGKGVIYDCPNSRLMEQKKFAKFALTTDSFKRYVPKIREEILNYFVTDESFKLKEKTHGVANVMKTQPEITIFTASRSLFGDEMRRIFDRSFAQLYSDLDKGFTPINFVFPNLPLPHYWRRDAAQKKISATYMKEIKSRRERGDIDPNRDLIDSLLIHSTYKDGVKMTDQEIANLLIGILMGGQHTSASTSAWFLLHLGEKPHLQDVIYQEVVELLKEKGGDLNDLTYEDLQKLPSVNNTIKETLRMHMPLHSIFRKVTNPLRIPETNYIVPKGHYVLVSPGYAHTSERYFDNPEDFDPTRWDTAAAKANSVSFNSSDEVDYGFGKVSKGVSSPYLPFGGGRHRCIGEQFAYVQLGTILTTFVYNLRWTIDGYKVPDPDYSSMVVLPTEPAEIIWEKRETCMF
T2 sequence (P10613 whole entry): as above

Structure (SMILES): CC(=O)N1CCN(c2ccc(OCC3COC(Cn4ccnc4)(c4ccc(Cl)cc4Cl)O3)cc2)CC1 (stereo not shown) [ketoconazole, reference compound]
- IC50 [2]: ~500 nM
- Reductive activity (pseudoperoxidase activity) [3]: No
- IC50 [1]: > 150000 nM
- IC50 ([4]; read-out: 5-LOX IC50, ref [12]): > 50000 nM
- Kd [5]: 27 ± 5 nM
- fold difference in binding to CaCYP51 compared to ketaminazole (16) ([5]; ratio of Kd values): 1.6 fold

Structure (SMILES): CC(C)(C)OC(=O)N1CCN(c2ccc(NCc3ccc(-c4ccc(C#N)cc4)o3)cc2)CC1 [Compound 1]
- Reductive activity (pseudoperoxidase activity) [3]: Yes
- IC50 [1]: > 150000 nM

Second part, led by results:

- IC50 [1]: > 150000 nM
Structure (SMILES): CC(=O)N1CCN(c2ccc(NCc3ccc(-c4cccc(Cl)c4)o3)cc2)CC1 [Compound 13]

- IC50 ([2]; 1 µM CaCYP51, 50 µM lanosterol, read-out: CaCYP51 IC50): ~900 nM
- CYP51 activity retained ([2]; CaCYP51, at 4 µM compound): ~15%
- Reductive activity (pseudoperoxidase activity) [3]: reductive inhibitor and Yes
- IC50 [1]: > 150000 nM
- Kd ([5]; 5 µM CaCYP51, Morrison equation, read-out: Kd with CaCYP51): 43 ± 5 nM
- IC50 ([5]; in vitro): 43 nM
Structure (SMILES): CC(=O)N1CCN(c2ccc(NCC3COC(Cn4ccnc4)(c4ccc(Cl)cc4Cl)O3)cc2)CC1 (stereo not shown) [ketaminazole (16), ketaminazole]

- IC50 [1]: > 150000 nM
Structure (SMILES): Cc1cc(C2CCCCC2)n(O)c(=O)c1 [ciclopirox, reference compound]

- Reductive activity (pseudoperoxidase activity) [3]: non-reductive
- Reductive activity (pseudoperoxidase activity) ([3]; listed as Setileuton): No
Structure (SMILES): CC[C@](O)(c1nnc(NCc2ccc3c(-c4ccc(F)cc4)cc(=O)oc3c2)o1)C(F)(F)F [setileuton, reference compound]
- IC50 ([4]; ref [2], read-out: 5-LOX IC50, literature value): 45 ± 10 nM
